Results reported in PMC4961623 (Journal of neurochemistry, 2016).

Biological target: T1, sterol carrier protein-2 (SCP-2) (Homo sapiens, UniProt P22307)
T1 sequence (P22307 425-547): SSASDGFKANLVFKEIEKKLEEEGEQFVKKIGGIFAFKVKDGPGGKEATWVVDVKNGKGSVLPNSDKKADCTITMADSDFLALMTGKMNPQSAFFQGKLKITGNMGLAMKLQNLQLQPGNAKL
Assay: fluorescent cis-parinaric acid displacement assay
Type: binding

Row | Structure (SMILES) | Ki [µM]
1 | CCCCC/C=C\C/C=C\C/C=C\C/C=C\CCCC(=O)OC(CO)CO [2-AG, 2-arachidonoylglycerol] | 0.2 ± 0.01
2 | CCCCC/C=C\C/C=C\C/C=C\C/C=C\CCCC(=O)NCCO [AEA, arachidonoylethanolamide] | 0.29 ± 0.01
